Values quoted from earlier work in US7705146B2, “Hepatitis C inhibitor peptide analogs” (Boehringer Ingelheim International GmbH, priority 2004, dated 2010).

Test system: hepatitis C virus
Settings: two day clinical trial, patients infected with the hepatitis C virus

In the case of `COc1ccc2c(O[C@@H]3C[C@H]4C(=O)N[C@]5(C(=O)O)C[C@H]5/C=C\CCCCC[C@H](NC(=O)OC5CCCC5)C(=O)N4C3)cc(-c3csc(NC(C)C)n3)nc2c1` [BILN 2061], the “reduction of viral loads in patients” value is listed as “effective in rapidly reducing viral loads”.
